Assay results taken from US9173915B1, “Antioxidant eye drops” (priority 2014, dated 2015).
Where two headings read alike, the source gives them in different places.

What was measured:
human RPE19 cells = test system: human RPE19 cells; set-up: unit of the concentration uncertain; conditions: cited from earlier work
[1] = test system: lens oxidative stress after UV irradiation; assay: UV-induced cataract model: lens GSH and 4-HNE after UV irradiation; type: in vivo, Sprague Dawley rats
Source text: Exposure to UV irradiation is another major risk factor of cataractogenesis. UV-irradiation induces ROS, which results in a rapid loss of reduced lens gluthione (GSH), the major antioxidant in the lens, followed several weeks later by subsequent lens opacification. For this study, young female Sprague Dawley rats were divided into five equal groups. One group served as the non-irradiated control group, while the second group served as the untreated irradiated control group. The third group received topical Optixcare carbomer vehicle containing 3% JHX-4 (4-(5-hydroxypyrimidin-2-yl)-N,N-dimethyl-3,5-dioxopiperazine-1-sulfonamide (99% pure by HPLC), the fourth received the present antioxidant eye drops composition, prepared as described above and referred to as topical Optixcare EH, and the fifth group received 1 mL of the oral Ocu-GLO™ by gavage, as described above. Treatments began 3 days prior to irradiation and continued until termination of the experiment. Prior to irradiation, each rat was anesthetized by intraperitoneal (i.p.) injection of a mixture of 60 mg/kg of ketamine and 10 mg/kg of xylazine, and the right eye was dilated with 1% tropicamide ophthalmic solution. The contralateral eye was covered with an eye patch that was held in place with black tape. […] Protein levels in an aliquot of the supernatant were measured according to Bradford Assay. Another aliquot was deproteinized with equal volume of 20% TCA and the GSH levels in the deproteinized supernatants were measured at 412 nm according to the DTNB method.
To confirm that the reduced GSH levels after UV exposure were linked to increased levels of ROS, the lenticular levels of the oxidized membrane lipid 4-hydroxynonenol (4-HNE) were determined using a competitive ELISA in the remaining homogenate supernatants by using the OxiSelect HINE Adduct Competitive ELISA Assay Kit (Cell Biolabs, Inc., San Diego, Calif.) according to the manufacturer's instructions.

[2] = test system: neural retina oxidative stress / photoreceptor layer; assay: Light-induced retinal degeneration in dark adapted rats; type: in vivo, Wistar rats
Source text: In the neural retina of dark adapted rats, exposure to light also results in the generation of ROS, iron dysregulation, and the release of iron from ferritin. In this animal model of age-related macular degeneration (AMD), Wistar rats were either orally treated with diet containing 0.05% of the multifunctional antioxidant JHX-4 or topically treated b.i.d. with Optixcare EH, with treatment beginning at the onset of two weeks of dark adaption.
As previously described in detail by Randazzo et al. (PLoS One, 2011, 6(7), p. e21926), groups containing twelve 4-5-week-old male Wistar rats receiving either normal rat chow (untreated), normal rat chow and topically treated with Optixcare EH b.i.d., or oral diet containing 0.05% of the multifunctional antioxidant JHX-4 were dark adapted for two weeks. Rats from each group were then individually placed into acrylic, flat bottom rodent restraints (Plas-labs, Inc., Lansing Mich.) in a light box apparatus and exposed for three hours to 1000 1× of cool white fluorescent lights (Lights of America, Los Angeles, Calif.). An additional group of non-treated rats were also placed into the light box apparatus for three hours, but not exposed to light (non-light-damaged rats, NLD). Immediately following light exposure, 8 light-damaged (LD) rats from each group and 8 NLD rats were immediately euthanized and the neural retinas were carefully dissected from the enucleated eye and frozen on dry ice for subsequent analysis. Subsequently, the thawed retinas were homogenized in lysis buffer for ELISA determinations using 4-HNE-His Adduct and Nitrotyrosine ELISA Kits. Additional thawed retinas were homogenized in RIPA buffer containing Halt Protease and Phosphatase Inhibitor Cocktail for western blot analysis of thioredoxin (TRx) and thioredoxin reductase (TRxR) expression levels. Protein samples were separated by SDS-PAGE and transferred onto nitrocellulose membranes. After blocking the membrane with 5% dry milk in 0.1% TBS-T, the membranes were then incubated overnight at 4° C. with the primary antibodies anti-TRx (1:1000 dilution) or anti-TRxR (1:2000 dilution). Subsequently, after washing with TBS-T, the membranes were incubated with a HRP-conjugated secondary antibody for 1 hour. The protein bands were visualized by chemiluminescence and exposure to x-ray film. Finally, the membranes were re-probed with antibody against GAPDH as an internal control. All visualized protein levels were quantified using the NIH ImageJ program available online at rsbweb.nih.gov/ij/.
Therefore, topical administration of Optixcare EH to light-exposed dark-adapted rats was not anticipated to result in any significant protection of retinal oxidative stress compared to the oral administration of the multifunctional antioxidant JHX-4. […] ROS and free radicals generated by retinal exposure to acute excessive light are also mediated by the thioredoxin (TRx)/thioredoxin reductase (TRxR) defense system. Therefore, the expression levels of both TRx and TRxR in the neural retinas of these rats were also examined.
The reduction of oxidative stress by JHX-4 and Optixcare EH was confirmed by histological measurements of the photoreceptor layers. After light exposure as described above, select rats in each group were returned to the dark environment for 7 additional days. Each rat was then euthanized by carbon dioxide asphyxiation, and the dorsal ventral orientation of each eye was marked with a cautery tool. […]

[3] = after 3 hours light exposure, ELISA

Row | Compound | reduction of in vitro proliferation of human RPE19 cells (human RPE19 cells; 50 (unit uncertain)) | reduction of in vitro proliferation of human RPE19 cells (human RPE19 cells; 100 (unit uncertain)) | lenticular 4-HNE levels vs untreated rats exposed to UV irradiation (FIG. 4) ([1]; UV exposed lenses, competitive ELISA) | 4-HNE lens levels, UV exposed vs unexposed contralateral eyes ([1]; competitive ELISA) | lens GSH levels, UV irradiated eye vs unexposed contralateral lens (FIG. 3) ([1]; pretreated 3 days, two days after 15 minutes UV irradiation) | photoreceptor layer (outer nuclear layer thickness), histology ([2]; 7 days in the dark after light exposure) | 4-HNE-histidine adduct levels in the neural retina (FIG. 5A) [2, 3] | nitrotyrosine adduct levels in the neural retina (FIG. 5B) [2, 3] | expression of thioredoxin (TRx) in the neural retina (FIG. 6A) ([2]; light exposed rats, western blot) | expression of thioredoxin reductase (TRxR) in the neural retina (FIG. 6B) ([2]; light exposed rats, western blot, p<0.05)
1 | Oc1ccc(C=Cc2cc(O)cc(O)c2)cc1 [resveratrol] | 10% | 25% | – | – | – | – | – | – | – | –
2 | CN(C)S(=O)(=O)N1CC(=O)N(c2ncc(O)cn2)C(=O)C1 [JHX-4, 4-(5-hydroxypyrimidin-2-yl)-N,N-dimethyl-3,5-dioxopiperazine-1-sulfonamide] | – | – | significantly lower | statistically similar | not significantly lower | only slightly decreased | neither oxidative marker significantly increased | neither oxidative marker significantly increased | reduced | significantly lowered
